Experimental data: patent US9839648B2, “Combined anti-acid-fast bacterial agent, screening method for anti-acid-fast bacterial agents, and activity inhibitor of WecA or ortholog thereof” (MICROBIAL CHEMISTRY RESEARCH FOUNDATION, priority 2013, dated 2017)
Converted amounts (≈) assume the structure as drawn.

Assays:
[1] = system: Mycobacterium tuberculosis H37Rv; assay: MIC by agar dilution method (Mycobacteria); type: cell-based; settings: 7H10 agar, 37° C., 2 to 14 days
Procedure: The MIC for Mycobacteria was measured by an agar dilution method.

Mycobacterium bovis BCG = assay: microbe, parasite or virus in culture; type: cell-based; settings: Mycobacterium tuberculosis variant bovis BCG
Bacillus subtilis PCI219 = assay: MIC by agar dilution method (other than Mycobacteria); type: cell-based; settings: Mueller-Hinton agar, 37° C., 18 hours
Bacillus subtilis 168 = assay: as above; type: cell-based; settings: Mueller-Hinton agar, 37° C., 18 hours
[2] = system: Staphylococcus aureus FDA209P; assay: as above; type: cell-based
[3] = system: Enterococcus faecalis JCM 5803; assay: as above; type: cell-based; settings: JCM5803, Mueller-Hinton agar, 37° C., 18 hours
[4] = system: Streptococcus pneumoniae S-223; assay: as above; type: cell-based
Escherichia coli K-12 = assay: as above; type: cell-based; settings: K12, Mueller-Hinton agar, 37° C., 18 hours
B. subtilis 168 strain = type: cell-based, Bacillus subtilis; settings: [14C(U)]glycerol, FIGS. 7A, 7C
TagO = biological target: T1, TagO (Bacillus subtilis, UniProt O34753); assay: Measurement of TagO activity with disruption liquid of 168/pHYcat-tagO cells; type: biochemical; settings: compared with caprazamycin B, tunicamycin, vancomycin, levofloxacin; FIG. 9A
T1 construct: using disruption liquids of bacterial cells of the 168/pHYcat-mraY strain and the 168/pHYcat-tagO highly expressing these enzymes; expressed in transfected cells; host or cells: Bacillus subtilis 168 carrying plasmid pHYcat-tagO; supernatant of sonicated cells
Procedure: The activities of enzymes MraY and TagO were measured in the following manner using disruption liquids of bacterial cells of the 168/pHYcat-mraY strain and the 168/pHYcat-tagO highly expressing these enzymes and produced in Test Example 3-2.
As a control, tunicamycin, vancomycin and levofloxacin were tested similarly.
The bacterial cells were cultured in an LB medium until logarithmic growth phase (OD600=0.4) and then collected through centrifuging (5,000 rpm, 10 min), followed by washing twice with a TMS buffer (50 mM Tris-HCl (pH 7.5), 625 mM sucrose, 10 mM MgCl2, 5 mM 3-mercapto-1,2-propanediol, 1 mM PMSF).
Next, the precipitate was re-suspended in a TMS buffer having a volume 1/40 the initial volume, and the bacterial cells were disrupted through probe sonication (where the following procedure was repeated 10 times on ice: disrupting them for 30 sec and leaving them stand still for 30 sec). […]
The TagO activity was measured by allowing 0.02 mL of the following reaction mixture to react at 30° C. for 1 hour.
Next, the lower layer containing the reaction product was analyzed through thin-layer chromatography (TLC, using as a developing solvent chloroform:methanol:water:concentrated aqueous ammonia=65:35:4:4) and autoradiography, to thereby calculate the enzymatic activity of TagO as a rate with respect to that of the control. […]

[5] = biological target: WecA of Mycobacterium smegmatis (Mycolicibacterium smegmatis, UniProt A0R211); assay: biochemical
[6] = system: B. subtilis 168 (parent strain); assay: MIC by microbroth dilution method, parent strain
Staph. aureus MRSA No. 5 = assay: MIC by agar dilution method (other than Mycobacteria)
[7] = system: Ent. faecalis NCTC12203 (VRE); assay: as above; settings: Enterococcus faecalis, 18 h
Str. pneumoniae CR-2 = assay: as above
[8] = system: B. subtilis CPZB-resistant strain; assay: MIC by microbroth dilution method, CPZB-resistant strain
B. subtilis 168/pHYcatA = assay: MIC by microbroth dilution method, control strain with pHYcat
[9] = system: B. subtilis 168/pHYcat-mraY; assay: MIC by microbroth dilution method, mraY highly expressing strain
[10] = system: B. subtilis 168/pHYcat-tagO; assay: MIC by microbroth dilution method, tagO highly expressing strain

In the case of `CCCCc1ccc(NC(=O)C2=CCN(C)[C@@H]([C@H](O[C@@H]3O[C@H](CN)C(O)C3O)[C@H]3O[C@@H](n4ccc(=O)[nH]c4=O)C(O)C3O)C(=O)N2C)cc1` (stereo partly drawn) [CPZEN-45], the MIC [1] is reported as 1.56 µg/mL (≈ 2.27 µM), the MIC (Mycobacterium bovis BCG) is reported as 2 µg/mL (≈ 2.9 µM) and the MIC (Bacillus subtilis PCI219) is reported as 1.56 µg/mL (≈ 2.27 µM). For the same compound, the MIC (Bacillus subtilis 168) was 4 µg/mL (≈ 5.81 µM), the MIC ([2]; Staphylococcus aureus FDA209P, agar dilution, Mueller-Hinton agar, 37° C., 18 hours) was 12.5 µg/mL (≈ 18.1 µM) and the “antibacterial activity (in words)” value ([2]; Staphylococcus aureus FDA209 strain, WecA or ortholog not essential for growth) was “no antibacterial activity”. For the same compound, the MIC [3] was 8 µg/mL (≈ 11.6 µM), the MIC ([4]; S223, Streptococcus pneumoniae S-223, agar dilution, Mueller-Hinton agar, 37° C., 18 hours) was 16 µg/mL (≈ 23.2 µM) and the “antibacterial activity (in words)” value ([4]; Streptococcus pneumoniae S-223 strain, has no WecA or ortholog) was “no antibacterial activity”. The MIC (Escherichia coli K-12) was > 100 µg/mL, the “incorporation into bacterial cells of glycerol (synthesis of teichoic acid)” value (B. subtilis 168 strain) was “inhibited” and the “enzymatic activity of TagO (inhibition)” value (TagO) was “the most strongly”. The IC50 [5] was 6.39 nM, the MIC ([6]; Bacillus subtilis, 16 h) was 4 µg/mL (≈ 5.81 µM) and the “antibacterial activity (in words)” value (Staph. aureus MRSA No. 5; Staph. aureus MRSA No. 5 strain, WecA or ortholog not essential for growth) was “no antibacterial activity”. The MIC (Staph. aureus MRSA No. 5; Staphylococcus aureus, MRSA, 18 h) was 100 µg/mL (≈ 145 µM), the MIC [7] was 8 µg/mL (≈ 11.6 µM) and the “antibacterial activity (in words)” value (Str. pneumoniae CR-2; Str. pneumoniae CR-2 strain, has no WecA or ortholog) was “no antibacterial activity”. For the same compound, the MIC (Str. pneumoniae CR-2; Streptococcus pneumoniae, CR2, 18 h) was 128 µg/mL (≈ 186 µM), the MIC ([8]; Bacillus subtilis, 16 h) was 4 µg/mL (≈ 5.81 µM) and the MIC (B. subtilis 168/pHYcatA; Bacillus subtilis, 168/PHYCATA) was 8 µg/mL (≈ 11.6 µM). The MIC ([9]; Bacillus subtilis) was 8 µg/mL (≈ 11.6 µM) and the MIC ([10]; Bacillus subtilis) was 64 µg/mL (≈ 92.9 µM).
With tunicamycin [reference compound] the MIC ([6]; B. subtilis 168 (parent strain), microbroth dilution, LB medium, 37° C., 16 hours) was 0.25 µg/mL, the MIC ([8]; B. subtilis CPZB-resistant strain, microbroth dilution, LB medium, 37° C., 16 hours) was 4 µg/mL and the MIC (B. subtilis 168/pHYcatA; B. subtilis 168/pHYcatA (control strain), microbroth dilution, LB medium) was 1 µg/mL. It also gave an MIC ([9]; B. subtilis 168/pHYcat-mraY (mraY highly expressing), microbroth dilution, LB medium) of 1 µg/mL and an MIC ([10]; B. subtilis 168/pHYcat-tagO (tagO highly expressing), microbroth dilution, LB medium) of 16 µg/mL.
`CN[C@H](CC(C)C)C(=O)N[C@H]1C(=O)N[C@@H](CC(N)=O)C(=O)N[C@H]2C(=O)N[C@H]3C(=O)N[C@H](C(=O)N[C@H](C(=O)O)c4cc(O)cc(O)c4-c4cc3ccc4O)[C@H](O)c3ccc(c(Cl)c3)Oc3cc2cc(c3O[C@@H]2O[C@H](CO)[C@@H](O)[C@H](O)[C@H]2O[C@H]2C[C@](C)(N)[C@H](O)[C@H](C)O2)Oc2ccc(cc2Cl)[C@H]1O` [vancomycin, reference compound] showed an MIC ([6]; Bacillus subtilis, 16 h) of 0.25 µg/mL (≈ 0.173 µM), an MIC ([8]; Bacillus subtilis, 16 h) of 0.25 µg/mL (≈ 0.173 µM) and an MIC (B. subtilis 168/pHYcatA; Bacillus subtilis, 168/PHYCATA) of 0.5 µg/mL (≈ 0.345 µM). It also gave an MIC ([9]; Bacillus subtilis) of 0.5 µg/mL (≈ 0.345 µM) and an MIC ([10]; Bacillus subtilis) of 1 µg/mL (≈ 0.69 µM).
